Data reported in the supplement of paper PMC13380429.

Tests used:
Conditions in all cases: 72 h
[1] = system: Calu-3; experiment: relative viability EC50 (midpoint between 100% and the lowest measured viability); higher = less toxic
[2] = system: Vero E6; experiment: as above
[3] = system: U2OS; experiment: as above
[4] = system: HepG2; experiment: as above
[5] = system: Caco-2; experiment: as above
[6] = system: Calu-3; experiment: drug sensitivity score (DSS) for viability; higher = more toxic; extreme values may be limits of the assay
[7] = system: Vero E6; experiment: as above
[8] = system: U2OS; experiment: as above
[9] = system: HepG2; experiment: as above
[10] = system: Caco-2; experiment: as above
[11] = system: Calu-3; experiment: cell viability relative to DMSO; higher = less toxic
[12] = system: Vero E6; experiment: as above
[13] = system: U2OS; experiment: as above
[14] = system: HepG2; experiment: as above
[15] = system: Caco-2; experiment: as above

SMILES	relative viability EC50 [1] [µM]	relative viability EC50 [2] [µM]	relative viability EC50 [3] [µM]	relative viability EC50 [4] [µM]	relative viability EC50 [5] [µM]	drug sensitivity score [6]	drug sensitivity score [7]	drug sensitivity score [8]	drug sensitivity score [9]	drug sensitivity score [10]	cell viability ([11]; 1 nM) [%]	cell viability ([11]; 10 nM) [%]	cell viability ([11]; 100 nM) [%]	cell viability ([11]; 1000 nM) [%]	cell viability ([11]; 10000 nM) [%]	cell viability ([12]; 1 nM) [%]	cell viability ([12]; 10 nM) [%]	cell viability ([12]; 100 nM) [%]	cell viability ([12]; 1000 nM) [%]	cell viability ([12]; 10000 nM) [%]	cell viability ([13]; 1 nM) [%]	cell viability ([13]; 10 nM) [%]	cell viability ([13]; 100 nM) [%]	cell viability ([13]; 1000 nM) [%]	cell viability ([13]; 10000 nM) [%]	cell viability ([14]; 1 nM) [%]	cell viability ([14]; 10 nM) [%]	cell viability ([14]; 100 nM) [%]	cell viability ([14]; 1000 nM) [%]	cell viability ([14]; 10000 nM) [%]	cell viability ([15]; 1 nM) [%]	cell viability ([15]; 10 nM) [%]	cell viability ([15]; 100 nM) [%]	cell viability ([15]; 1000 nM) [%]	cell viability ([15]; 10000 nM) [%]
CC(CCc1ccccc1)NCC(O)c1ccc(O)c(C(N)=O)c1 (stereo not given) [labetalol]	> 10	> 10	> 10	> 10	> 10	0	0	0	0	0	98.7	107	94.8	103	101	97.3	97.2	96.3	92	103	97.6	105	98.6	101	99.7	105	100	102	90.5	99.6	88.3	85.3	89.4	91.2	110
NCCOB(c1ccccc1)c1ccccc1 [2-APB]	> 10	> 10	> 10	> 10	> 10	0	0	0	0	0	101	96.3	99.1	105	103	110	108	97.4	101	105	96	95.6	100	100	104	96.8	112	91.2	93.4	92.1	91	93.3	98.5	94.3	104
N#Cc1ccc(NCCNCC(=O)N2CCC[C@H]2C#N)nc1 [NVP-DPP728]	> 10	> 10	> 10	> 10	> 10	0	0	0	0	0	101	92.1	96.5	104	110	97.5	97.8	90.3	91.6	104	96.2	98.3	101	102	99.4	112	98.6	102	97.3	106	96.6	100	97.1	106	104
CCCN(CCC)[C@H]1CCc2cccc(O)c2C1 [8-hydroxy-DPAT]	> 10	> 10	> 10	> 10	> 10	0	0	0	0	0	99.2	105	97.4	101	102	97	94.5	99.2	89.3	104	96.9	98	99.1	102	99.9	102	102	93.6	109	92.2	101	101	98	98.8	101
CC(=O)[C@H]1CC[C@H]2[C@@H]3CC[C@H]4C[C@](C)(O)CC[C@]4(C)[C@H]3CC[C@]12C [ganaxolone]	> 10	> 10	> 10	> 10	> 10	0	0	0	0	0	96.7	94	98.5	98.4	102	89.8	103	91.2	95.7	106	98.8	99.4	101	100	100	93.4	108	94.2	102	101	95	98.7	98.2	98.7	101
NC(=O)CN1CC(O)CC1=O (stereo not given) [oxiracetam]	> 10	> 10	> 10	> 10	> 10	0	0	0	0	0	101	98	102	93.9	102	98.1	101	104	99.2	97.1	107	103	97.5	100	98.9	92.6	101	95.8	104	94.8	98.9	111	94.8	99.1	101
O=C(NCCN1CCN(c2ncccn2)CC1)C12CC3CC(CC(C3)C1)C2 [adatanserin]	> 10	> 10	> 10	> 10	> 10	0	0	0	0.9	0	101	96.5	107	86.8	101	99.5	97.9	101	99.4	104	94.9	94.2	97.8	96.9	97.4	102	98	88.5	90.7	90.9	92	114	94.7	102	88.5
